Active and inactive are the calls of the source. No cut-off for these calls is given here.
Assays:
[1] = tested on: Artemia salina; assay: Toxicity in Artemia salina at 5 ug/ml; format: organism-based; details: in vivo
[2] = tested on: Geotrichum candidum; assay: Antifungal activity against Geotrichum candidum up to 120 ug/ml; format: functional, organism-based
[3] = tested on: Fabaceae; assay: Phytotoxicity against beans leaves assessed as necrotic lesion at 15 ug/15 ul after 48 hrs by leaf puncture assay; format: functional, organism-based
[4] = tested on: Pisum sativum; assay: Phytotoxicity against pea leaves assessed as necrotic lesion at 15 ug/15 ul after 48 hrs by leaf puncture assay; format: functional, organism-based; details: Lathyrus oleraceus
[5] = tested on: Artemia salina; assay: Toxicity in Artemia salina at 50 ug/ml; format: organism-based; details: in vivo

Compound | Activity [1] | Activity [2] | Activity [3] | Activity [4] | Activity [5]
C/C=C/C=C/C(=O)O[C@H]1CC/C=C/[C@@H](O)[C@H](O)[C@@H](CCC)OC1=O | Non-toxic | inactive | Toxic | Toxic | Toxic
C/C=C/C=C/C(=O)O[C@H]1CCC2OC2[C@H](O)[C@H](O)[C@@H](CCC)OC1=O (some centres undefined) | Non-toxic | inactive | – | – | Toxic
C/C=C/C=C/C(=O)O[C@H]1CCCC[C@H](O)[C@H](O)[C@@H](CCC)OC1=O | Non-toxic | inactive | Toxic | Toxic | –
C/C=C/C=C/C(=O)O[C@H]1CC/C=C/[C@H](O)[C@H](O)[C@@H](CCC)OC1=O [PINOLIDOXIN] | Non-toxic | inactive | – | – | –

Source: ChEMBL document CHEMBL1147395, “Three New Toxic Pinolidoxins from Ascochyta pinodes” (J Nat Prod, 1993)
